Measured values published in patent US12631620B2, “Methods of generating organoids for high throughput screening of drugs” (Yissum Research Development Company of the Hebrew …, priority 2019, dated 2026).
Values joined by “and” are separate entries in the source; they are usually repeats but may differ in a detail not shown here. Equal entries are not always repeated.

System: HepG2/C3A organoids
Assay: Real-time oxygen uptake toxicity (TC50, time to onset, lowest exposure level) in differentiated HepG2/C3A organoids
Type: cell-based, human
Conditions: for TC50: oxygen uptake
Description: A suspension of HepG2/C3A cells and CPOx-50-RuP beads (Colibri Photonics, Germany) were suspended in 2.5 mg/ml rat tail collagen type I (Corning, USA) at a cell density of 7×10^5 cells/μl. A volume of 1.1 μl of the gel-imbedded mixture was injected into each microwell and left to form spontaneously until their metabolic activity stabilized around day 4.
Fifty-micrometer-diameter polystyrene microbeads were loaded with ruthenium-phenanthroline-based phosphorescence dye (CPOx-50-RuP). […] Oxygen acts as a quencher, leading to a decrease in decay time and signal intensity with increasing concentration. The present inventors chose to measure decay time, rather than signal intensity, as it is not sensitive to changes in probe concentration or excitation intensity over the course of the experiment. The signal was measured using the OPAL system (Colibri Photonics, Germany) that comprises of a control module, 532 nm LED excitation source, and a photomultiplier (PMT) detector mounted on the ocular of an IX81 Olympus microscope (Olympus, Japan). A filter cube with 531/40 (Ex), 555, 607/70 (Em) was inserted in the optical light path during measurements. To accurately measure decay time, the present inventors chose phase modulation in which sinusoidal amplitude-modulated light is shifted in phase due to oxygen quenching. To overcome the superposition of in-phase background fluorescence that alters the phase of the detected signal, the present inventors used a novel 53.5 and 31.3 kHz two-frequency phase modulation that allowed to screen out the interference [Schmalzlin E., et al., 2005. Biophysical journal, 89: 1339-1345; Papkovsky, D. B. et al., 2004. Methods in enzymology, 381, 715-735; Ast, C., et al., 2012. Sensors (Basel), 12: 7015-7032; Engelhard, S., et al., 2006. Analytical and bioanalytical chemistry, 384: 1107-1112; Prill, D. et al., 2016, Archives of toxicology, 90: 1181-1191]. Measurements were carried out by averaging five consecutive 4-s exposures. Measurements were taken every 15 minutes. Under similar conditions, 28 days of measurement of organoids was done with no apparent phototoxicity, signal drift, or relevant loss of signal intensity (Schmalzlin E., et al., 2005. Biophysical journal, 89: 1339-1345). Assessment of Cellular Toxicity and Time to Onset
Organoids were exposed to different concentrations of compounds dissolved in culture medium. Cell viability was determined by oxygen uptake following 24 hours of exposure unless otherwise noted. TC50 concentrations were determined using MATLAB by sigmoidal curve fitting (Wenner, M. M. et al., 2011, J Appl Physiol (1985), 111: 1703-1709; Prentice, R. L. et al., 1976, Biometrics, 32: 761-768). Time to onset was analyzed by MATLAB based on LPF and trend assessment.
To find the asymptotic concentration for which damage occurs only at infinite exposure time, the present inventors used a previously developed model for accumulative drug exposure (El-Kareh et al., 2000. Neoplasia, 2: 325-338; Currie, G. M. 2018. J Nucl Med Technol, DOI: 10.2967/jnmt.117.199588). The model is based on the steady-state dynamics of flux accumulation, using a linear first-order approximation of the cell membrane. The flux behavior is described by
where J(C) is the concentration dependent flux, Jmin is the minimal flux that will cause an effect, t is time of exposure and |τ is a drug-cell specific constant accounting reaction dynamics (Gowrishankar et al., 2003. Proceedings of the National Academy of Sciences of the United States of America, 100: 3203-3208; Kotnik T. et al., 2000. IEEE Trans Biomed Eng, 47: 1074-1081). In the present case, t is the Time to Onset (TTO) of damage creating a bi-asymptotic behavior. This adapted model is used to describe lowest exposure level (LEL) under first order, steady state assumptions, as
Real-time oxygen measurements were performed optically using on-chip lifetime-based luminescence quenching (LBLQ). […]

## Cc1cn([C@H]2C=C[C@@H](CO)O2)c(=O)[nH]c1=O [Stavudine]
At 24 hours
  TC50: 4300 µM
At 42 hours
  TC50: 1700 µM and 1700 ± 400 µM
dose-dependent range over concentrations tested
  Time to onset (TTO) of response: 10 to 29 h
Horizontal asymptote, onset of damage at infinite time, ± standard error of curve fit
  lowest exposure level (LEL): 4 ± 1 µM
